Assay results as given in patent publication US20260048051A1, “TREATMENT OF INFLAMMATORY BOWEL DISEASE” (Atomwise Inc., priority 2024, published 2026).
Like-named read-outs stand apart in the source and are kept apart here.

Experiment: Plasma and tissue distribution in SD rats
Format: in vivo
Details: for Kp / AUC(0-t): rat, 10 mg/kg; for AUC(0-t): plasma
From the text: The following Example describes the methods and data used to evaluate the tissue distribution of TYK2 inhibitors following the administration of either compound 1 or compound 2.
Thirty (30, 15/sex) SD rats supplied by Beijing Vital River Laboratory Animal Technology Co., Ltd. were used in this study. The animals were confirmed to be healthy before being assigned to the study. The room (s) was controlled and monitored for relative humidity (targeted mean range 40% to 70%) and temperature (targeted mean range 20° C. to 26° C.) with 15 or above air changes/hour. The room was on a 12-hour light/dark cycle except when interruptions were necessitated by study activities. Fresh drinking water (reverses osmosis) was available to all animals, ad libitum. Certified animal diet from certified vendor was available to all animals, ad libitum.
Animals were weighed prior to dose administration to calculate the actual dose volume. The body weights were in the range from 245.39 to 276.33 g for males and 182.29 to 215.69 g for females on the first dosing day. The animals in Groups 1 and 2 received a single oral gavage administration of test compound 1. Cage-side observations for the general health condition and appearance of the animal were performed before and after dosing and at each time point of sample collection. Unusual observations were recorded throughout the duration of the study.
The vehicle was 0.5% methyl cellulose (4000 cps) in water. The formulation was prepared according to the following steps. Group 1: 25.95 mg of compound 1 was weighed into a glass vial. 5000 μL of vehicle was added into the vial and stirred for 30 min at 1700 rpm to get a homogenous opaque suspension. 5000 μL of vehicle was added into the vial and stirred for 10 min at 1700 rpm to get a homogenous opaque suspension. 5000 μL+5000 μL+5000 μL+924 μL of vehicle was added into the vial and stirred for 10 min at 1700 rpm to get a homogenous opaque suspension. Group 2: 81.66 mg of compound 1 was weighed into a glass vial. 5000 μL of vehicle was added into the vial and stirred for 30 min at 1700 rpm to get a homogenous opaque suspension. 5000 μL of vehicle was added into the vial and stirred for 10 min at 1700 rpm to get a homogenous opaque suspension. 10 mL+10 mL+10 mL+20 mL+10 mL+10 mL+1580 μL of vehicle was added into the vial and stirred for 10 min at 1700 rpm to get a homogenous opaque suspension.
Blood (about 0.2 mL) was collected at each time point via jugular vein puncture from each study animal. The actual time for each sample collection was recorded. The acceptable deviations on sampling time were ±1 min for the time points pre-dose through 1 hour post-dose, and +5% of the nominal time for time points after 1 hour post-dose.
All blood samples were transferred into commercial tubes containing K2-EDTA. After blood was collected, the samples were placed on wet ice and processed for plasma within 60 minutes of collection by centrifugation at approximately 4° C., 3200×g for 10 minutes, and then quickly frozen over dry ice and kept at −60° C. or lower until LC-MS/MS analysis.
Following terminal blood sample collection, animals were conducted CO2 euthanasia, the chest and abdominal cavities were opened carefully lengthwise using scissors to expose the internal organs in preparation of tissue perfusion. A needle was used to puncture a small hole into the left ventricle of the heart, and then clamped with a hemostat. […] Fluid (cold 1×PBS) was infused until the liver pales (typically 2-3 minutes). Following perfusion, 14 kinds of tissues (spleen, bone marrow, adipose, brain, heart, kidney, liver, lung, skin, small intestine, large intestine, eye, gonads, and bladder) were collected from each animal, respectively.
Each tissue was weighed and homogenized on wet ice using homogenizing buffer (MeOH/15 mM PBS 1:2) at the ratio of 1:9 (1 g tissue with 9 mL buffer). The tissue homogenate was kept at −60° C. or lower until LC-MS/MS analysis. […]

[1] = female SD rat, PO 10 mg/kg, Spleen
[2] = male SD rat, PO 10 mg/kg, Bladder
[3] = male SD rat, PO 10 mg/kg, Bone Marrow
[4] = male SD rat, PO 10 mg/kg, Epididymis & Testis
[5] = male SD rat, PO 10 mg/kg, Eyeball (left and right)
[6] = male SD rat, PO 10 mg/kg, Heart
[7] = male SD rat, PO 10 mg/kg, Kidney (left and right)
[8] = male SD rat, PO 10 mg/kg, Large intestine
[9] = male SD rat, PO 10 mg/kg, Liver
[10] = male SD rat, PO 10 mg/kg, Small intestine
[11] = male SD rat, PO 10 mg/kg, Spleen
[12] = ovary and uterus, female SD rat, PO 10 mg/kg, Ovary & Uterus

SMILES: C[C@@H](c1ccc(Nc2cc(Nc3ncccc3S(C)(=O)=O)ncn2)nc1)N1CC2(COC2)C1 [Compound 1, (S)—N^4-(5-(1-(2-oxa-6-azaspiro[3.3]heptan-6-yl)ethyl)pyridin-2-yl)-N^6-(3-(methylsulfonyl)pyridin-2-yl)pyrimidine-4,6-diamine]
- AUC0-24 [1]: 22131 ng·h/g
- AUC0-inf [1]: 22145 ng·h/g
- AUC0-last [1]: 19543 ng·h/g
- Cmax [1]: 4430 ng/g
- Tmax [1]: 0.5 h
- half-life [1]: 2.62 h
- Kp (female, SD, bladder, po, female SD rat, PO 10 mg/kg, Bladder, Tissue AUC0-last/Plasma AUC0-last, read-out: AUC Ratio): 5.12
- Kp (female, SD, bone marrow, po, female SD rat, PO 10 mg/kg, Bone Marrow, Tissue AUC0-last/Plasma AUC0-last, read-out: AUC Ratio): 4.64
- Kp (female, SD, eyeball (left and right), po, female SD rat, PO 10 mg/kg, Eyeball (left and right), Tissue AUC0-last/Plasma AUC0-last, read-out: AUC Ratio): 0.953
- Kp (female, SD, fat, po, female SD rat, PO 10 mg/kg, Fat, Tissue AUC0-last/Plasma AUC0-last, read-out: AUC Ratio): 0.506
- Kp (female, SD, heart, po, female SD rat, PO 10 mg/kg, Heart, Tissue AUC0-last/Plasma AUC0-last, read-out: AUC Ratio): 1.39
- Kp (female, SD, kidney (left and right), po, female SD rat, PO 10 mg/kg, Kidney (left and right), Tissue AUC0-last/Plasma AUC0-last, read-out: AUC Ratio): 30.6
- Kp (female, SD, large intestine, po, female SD rat, PO 10 mg/kg, Large intestine, Tissue AUC0-last/Plasma AUC0-last, read-out: AUC Ratio): 11.6
- Kp (female, SD, liver, po, female SD rat, PO 10 mg/kg, Liver, Tissue AUC0-last/Plasma AUC0-last, read-out: AUC Ratio): 8.67
- Kp (female, SD, lung, po, female SD rat, PO 10 mg/kg, Lung, Tissue AUC0-last/Plasma AUC0-last, read-out: AUC Ratio): 2.57
- Kp (female, SD, ovary and uterus, po, female SD rat, PO 10 mg/kg, Ovary & Uterus, Tissue AUC0-last/Plasma AUC0-last, read-out: AUC Ratio): 1.29
- Kp (female, SD, skin, po, female SD rat, PO 10 mg/kg, Skin, Tissue AUC0-last/Plasma AUC0-last, read-out: AUC Ratio): 1.11
- Kp (female, SD, small intestine, po, female SD rat, PO 10 mg/kg, Small intestine, Tissue AUC0-last/Plasma AUC0-last, read-out: AUC Ratio): 17.5
- Kp (female, SD, spleen, po, female SD rat, PO 10 mg/kg, Spleen, Tissue AUC0-last/Plasma AUC0-last, read-out: AUC Ratio): 5.73
- Kp (female, Sprague-Dawley, ovaries, oral, SD rat, Ovaries, read-out: Tissue/Plasma Ratio (AUCinf)): 1.4
- AUC(0-t) (female, Sprague-Dawley, po, female SD rat, PO 10 mg/kg, read-out: AUC0-24): 3610 ng·h/mL
- AUC(0-t) (female, Sprague-Dawley, po, female SD rat, PO 10 mg/kg, read-out: AUC0-last): 3410 ng·h/mL
- AUC0-24 [2]: 14526 ng·h/g
- AUC0-inf [2]: 14666 ng·h/g
- AUC0-last [2]: 14526 ng·h/g
- Cmax [2]: 2980 ng/g
- Tmax [2]: 2 h
- half-life [2]: 3.38 h
- AUC0-24 [3]: 10736 ng·h/g
- AUC0-inf [3]: 10835 ng·h/g
- AUC0-last [3]: 10736 ng·h/g
- Cmax [3]: 2900 ng/g
- Tmax [3]: 0.5 h
- half-life [3]: 3.51 h
- AUC0-24 [4]: 5163 ng·h/g
- AUC0-last [4]: 5163 ng·h/g
- AUC0-24 [5]: 1795 ng·h/g
- AUC0-inf [5]: 1830 ng·h/g
- AUC0-last [5]: 1332 ng·h/g
- AUC0-24 (male SD rat, PO 10 mg/kg, Fat): 1703 ng·h/g
- AUC0-inf (male SD rat, PO 10 mg/kg, Fat): 1716 ng·h/g
- AUC0-last (male SD rat, PO 10 mg/kg, Fat): 1388 ng·h/g
- AUC0-24 [6]: 3366 ng·h/g
- AUC0-inf [6]: 3374 ng·h/g
- AUC0-last [6]: 3004 ng·h/g
- AUC0-24 [7]: 23128 ng·h/g
- AUC0-inf [7]: 23415 ng·h/g
- AUC0-last [7]: 23128 ng·h/g
- AUC0-24 [8]: 45091 ng·h/g
- AUC0-last [8]: 45091 ng·h/g
- AUC0-24 [9]: 20288 ng·h/g
- AUC0-inf [9]: 20534 ng·h/g
- AUC0-last [9]: 20288 ng·h/g
- Cmax [9]: 5400 ng/g
- Tmax [9]: 0.5 h
- half-life [9]: 3.87 h
- AUC0-24 (male SD rat, PO 10 mg/kg, Lung): 5806 ng·h/g
- AUC0-inf (male SD rat, PO 10 mg/kg, Lung): 5835 ng·h/g
- AUC0-last (male SD rat, PO 10 mg/kg, Lung): 4926 ng·h/g
- Cmax (male SD rat, PO 10 mg/kg, Lung): 1960 ng/g
- Tmax (male SD rat, PO 10 mg/kg, Lung): 0.5 h
- half-life (male SD rat, PO 10 mg/kg, Lung): 2.7 h
- AUC0-24 (male SD rat, PO 10 mg/kg, Skin): 7864 ng·h/g
- AUC0-inf (male SD rat, PO 10 mg/kg, Skin): 9352 ng·h/g
- AUC0-last (male SD rat, PO 10 mg/kg, Skin): 7864 ng·h/g
- Cmax (male SD rat, PO 10 mg/kg, Skin): 868 ng/g
- Tmax (male SD rat, PO 10 mg/kg, Skin): 0.5 h
- half-life (male SD rat, PO 10 mg/kg, Skin): 8.6 h
- AUC0-24 [10]: 73082 ng·h/g
- AUC0-inf [10]: 73697 ng·h/g
- AUC0-last [10]: 73822 ng·h/g
- Cmax [10]: 16500 ng/g
- Tmax [10]: 0.5 h
- half-life [10]: 3.41 h
- AUC0-24 [11]: 13189 ng·h/g
- AUC0-inf [11]: 13631 ng·h/g
- AUC0-last [11]: 13189 ng·h/g
- Cmax [11]: 4230 ng/g
- Tmax [11]: 0.5 h
- half-life [11]: 4.91 h
- Kp (male, SD, bladder / plasma, po, male SD rat, PO 10 mg/kg, Bladder, Tissue AUC0-last/Plasma AUC0-last, read-out: AUC Ratio): 3.37
- Kp (male, SD, bone marrow / plasma, po, male SD rat, PO 10 mg/kg, Bone Marrow, Tissue AUC0-last/Plasma AUC0-last, read-out: AUC Ratio): 3.97
- Kp (male, SD, large intestine / plasma, po, male SD rat, PO 10 mg/kg, Large intestine, Tissue AUC0-last/Plasma AUC0-last, read-out: AUC Ratio): 16.7
- Kp (male, SD, liver / plasma, po, male SD rat, PO 10 mg/kg, Liver, Tissue AUC0-last/Plasma AUC0-last, read-out: AUC Ratio): 7.5
- Kp (male, SD, lung / plasma, po, male SD rat, PO 10 mg/kg, Lung, Tissue AUC0-last/Plasma AUC0-last, read-out: AUC Ratio): 1.82
- Kp (male, SD, skin / plasma, po, male SD rat, PO 10 mg/kg, Skin, Tissue AUC0-last/Plasma AUC0-last, read-out: AUC Ratio): 2.91
- Kp (male, SD, small intestine / plasma, po, male SD rat, PO 10 mg/kg, Small intestine, Tissue AUC0-last/Plasma AUC0-last, read-out: AUC Ratio): 27
- Kp (male, SD, spleen / plasma, po, male SD rat, PO 10 mg/kg, Spleen, Tissue AUC0-last/Plasma AUC0-last, read-out: AUC Ratio): 4.88
- Kp (male, Sprague-Dawley, epididymis and testis, po, male SD rat, PO 10 mg/kg, Epididymis & Testis, Tissue AUC0-last/Plasma AUC0-last, read-out: AUC Ratio): 1.91
- Kp (male, Sprague-Dawley, eyeball (left and right), po, male SD rat, PO 10 mg/kg, Eyeball (left and right), Tissue AUC0-last/Plasma AUC0-last, read-out: AUC Ratio): 0.492
- Kp (male, Sprague-Dawley, fat, po, male SD rat, PO 10 mg/kg, Fat, Tissue AUC0-last/Plasma AUC0-last, read-out: AUC Ratio): 0.513
- Kp (male, Sprague-Dawley, heart, po, male SD rat, PO 10 mg/kg, Heart, Tissue AUC0-last/Plasma AUC0-last, read-out: AUC Ratio): 1.11
- Kp (male, Sprague-Dawley, kidney (left and right), po, male SD rat, PO 10 mg/kg, Kidney (left and right), Tissue AUC0-last/Plasma AUC0-last, read-out: AUC Ratio): 8.35
- AUC(0-t) (male, Sprague-Dawley, po, male SD rat, PO 10 mg/kg, read-out: AUC0-24): 2910 ng·h/mL
- AUC(0-t) (male, Sprague-Dawley, po, male SD rat, PO 10 mg/kg, read-out: AUC0-last): 2700 ng·h/mL
- Kp (male, Sprague-Dawley, testis, oral, SD rat, Testis, read-out: Tissue/Plasma Ratio (AUCinf)): 1.6
- Cmax [12]: 976 ng/g
- Tmax [12]: 0.5 h
- half-life [12]: 2.68 h
